In the NIST ThermoML archive (doi:10.1021/je060271a):

Details: 323.16 K, Liquid, Vibrating tube method

CCCCCC(=O)OCC(COC(=O)CCCCC)(COC(=O)CCCCC)COC(=O)CCCCC [pentaerythritol tetrahexanoate]
Details	mass density [kg/m3]
24638 kPa	989
24665 kPa	988.9
24693 kPa	988.9
24716 kPa	988.9
24744 kPa	989
24772 kPa	989
24795 kPa	988.9
24822 kPa	989
24849 kPa	989
24876 kPa	989.1
24905 kPa	989
24928 kPa	989.2
24956 kPa	989.1
24984 kPa	989.2
25012 kPa	989.1
25040 kPa	989.2
25063 kPa	989.1
25092 kPa	989.2
25120 kPa	989.4
25148 kPa	989.3
25172 kPa	989.1
25200 kPa	989.2
25228 kPa	989.4
25257 kPa	989.3
25286 kPa	989.2
25314 kPa	989.3
25339 kPa	989.4
25368 kPa	989.4
25397 kPa	989.3
25422 kPa	989.4
25450 kPa	989.4
25480 kPa	989.3
25509 kPa	989.4
26056 kPa	989.7
26083 kPa	989.7
26111 kPa	989.8
26138 kPa	989.8
26161 kPa	989.8
26189 kPa	989.8
26217 kPa	989.8
26244 kPa	989.9
26266 kPa	989.9
26294 kPa	989.9
26321 kPa	989.9
26349 kPa	989.9
26377 kPa	989.9
26405 kPa	990
26428 kPa	990
26456 kPa	990
26485 kPa	990
26516 kPa	990
26539 kPa	990.1
26567 kPa	990.1
26596 kPa	990.2
26620 kPa	990.1
26648 kPa	990.1
26677 kPa	990.1
26706 kPa	990.2
26734 kPa	990.2
27187 kPa	990.3
27218 kPa	990.5
27243 kPa	990.5
27273 kPa	990.4
27304 kPa	990.6
27334 kPa	990.6
27359 kPa	990.6
27390 kPa	990.6
27420 kPa	990.5
27451 kPa	990.6
27481 kPa	990.7
27507 kPa	990.6
27538 kPa	990.7
27569 kPa	990.7
27601 kPa	990.7
27627 kPa	990.7
27659 kPa	990.8
27690 kPa	990.8
27722 kPa	990.8
27748 kPa	990.8
27781 kPa	990.7
27814 kPa	990.9
27846 kPa	990.8
27871 kPa	990.8
27898 kPa	991
27926 kPa	990.9
27954 kPa	990.9
27978 kPa	991
28006 kPa	990.8
28034 kPa	990.9
28308 kPa	991.1
28332 kPa	991.2
28361 kPa	991.2
28389 kPa	991.2
28418 kPa	991.2
28471 kPa	991.3
28499 kPa	991.1
28529 kPa	991.2
28553 kPa	991.1
28582 kPa	991.2
28611 kPa	991.3
28640 kPa	991.4
29189 kPa	991.7
29221 kPa	991.7
29253 kPa	991.7
29279 kPa	991.7
29311 kPa	991.8
29343 kPa	991.8
29373 kPa	991.8
29395 kPa	991.8
29423 kPa	991.8
29446 kPa	991.7
29473 kPa	991.8
29500 kPa	991.8
29527 kPa	991.9
29603 kPa	991.9
29630 kPa	991.8
29657 kPa	992.1
29680 kPa	992
29707 kPa	992
29734 kPa	992
29999 kPa	992.1
30027 kPa	992.1
30055 kPa	992.3
30079 kPa	992.1
30107 kPa	992.1
30135 kPa	992.2
30159 kPa	992.4
30188 kPa	992.3
30217 kPa	992.3
30245 kPa	992.2
30273 kPa	992.4
30301 kPa	992.4
30326 kPa	992.2
30354 kPa	992.4
30383 kPa	992.3
30407 kPa	992.4
30436 kPa	992.4
30579 kPa	992.4
30610 kPa	992.4
30641 kPa	992.5
30672 kPa	992.6
30697 kPa	992.5
30725 kPa	992.6
30749 kPa	992.7
30774 kPa	992.6
